Experimental data taken from the supplement of paper PMC11451515.

Columns and labels:
Settings in all cases: 48 h
NOMO1 [1] = assay: cell viability relative to DMSO control; higher = less cytotoxic
Procedure, shortened: (§1)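 In 1536-well plates, 5 μl of leukemia cells were seeded per well: 500 cells/well for NOMO1 or SEM and 1000 cells/well for P12-Ichikawa. Each line had first been adapted for at least four passages in each medium. Library compounds in DMSO were pin-dosed at 11 threefold concentrations between 47 μM and 0.79 nM, and CellTiter-Glo One luminescence was read after 48 h at 37°C. Viability is a per-plate percentage relative to DMSO wells, with cell-free wells as background.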

P12-Ichikawa [2] = assay: as above
Procedure, shortened: as §1

SEM cells = assay: as above
Procedure, shortened: as §1

NOMO1 [3] = assay: AUC of viability dose-response curve (% viability x log10 dose units); higher = less sensitive
Procedure, shortened: (§2)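 Leukemia cells adapted to each medium (500 or 1000 cells/well, 1536-well plates) were exposed to library compounds in DMSO for 48 h at 37°C at 11 threefold doses, 47 μM to 0.79 nM. Luminescence by CellTiter-Glo One was normalised per plate to DMSO and cell-free wells, then fitted with a four-parameter log-logistic curve on log10 dose. Curves above full viability were scaled and quality-control failures removed before area under the curve was integrated by trapezoidal rule.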

P12-Ichikawa [4] = assay: as above
Procedure, shortened: as §2

C[C@@H](c1ncncc1F)[C@](O)(Cn1cncn1)c1ccc(F)cc1F
cell viability [%]
Settings | NOMO1 [1] | P12-Ichikawa [2] | SEM cells
HPLM + 10% dialyzed FBS, 0.000781 µM | 117 | 111 | 119
HPLM + 10% dialyzed FBS, 0.00234 µM | 121 | 115 | 116
HPLM + 10% dialyzed FBS, 0.00702 µM | 110 | 110 | 118
HPLM + 10% dialyzed FBS, 0.0211 µM | 110 | 107 | 110
HPLM + 10% dialyzed FBS, 0.0632 µM | 125 | 107 | 121
HPLM + 10% dialyzed FBS, 0.19 µM | 114 | 107 | 25.3
HPLM + 10% dialyzed FBS, 0.569 µM | 120 | 110 | 114
HPLM + 10% dialyzed FBS, 1.71 µM | 107 | 108 | 118
HPLM + 10% dialyzed FBS, 5.12 µM | 111 | 103 | 19
HPLM + 10% dialyzed FBS, 15.4 µM | 108 | 102 | 120
HPLM + 10% dialyzed FBS, 46.1 µM | 93.3 | 89.6 | 83.4
RPMI 5 mM glucose + 10% FBS, 0.000781 µM | 111 | 123 | –
RPMI 5 mM glucose + 10% FBS, 0.00234 µM | 111 | 130 | –
RPMI 5 mM glucose + 10% FBS, 0.00702 µM | 114 | 119 | –
RPMI 5 mM glucose + 10% FBS, 0.0211 µM | 103 | 121 | –
RPMI 5 mM glucose + 10% FBS, 0.0632 µM | 108 | 111 | –
RPMI 5 mM glucose + 10% FBS, 0.19 µM | 107 | 119 | –
RPMI 5 mM glucose + 10% FBS, 0.569 µM | 126 | 116 | –
RPMI 5 mM glucose + 10% FBS, 1.71 µM | 108 | 114 | –
RPMI 5 mM glucose + 10% FBS, 5.12 µM | 107 | 98.9 | –
RPMI 5 mM glucose + 10% FBS, 15.4 µM | 91.1 | 105 | –
RPMI 5 mM glucose + 10% FBS, 46.1 µM | 93.8 | 92.6 | –
RPMI 5 mM glucose + 10% dialyzed FBS, 0.000781 µM | 111 | 109 | 123
RPMI 5 mM glucose + 10% dialyzed FBS, 0.00234 µM | 114 | 118 | 125
RPMI 5 mM glucose + 10% dialyzed FBS, 0.00702 µM | 128 | 116 | 126
RPMI 5 mM glucose + 10% dialyzed FBS, 0.0211 µM | 115 | 105 | 126
RPMI 5 mM glucose + 10% dialyzed FBS, 0.0632 µM | 111 | 111 | 141
RPMI 5 mM glucose + 10% dialyzed FBS, 0.19 µM | 97.9 | 104 | 32.3
RPMI 5 mM glucose + 10% dialyzed FBS, 0.569 µM | 108 | 108 | 140
RPMI 5 mM glucose + 10% dialyzed FBS, 1.71 µM | 116 | 107 | 103
RPMI 5 mM glucose + 10% dialyzed FBS, 5.12 µM | 99.8 | 102 | 15.2
RPMI 5 mM glucose + 10% dialyzed FBS, 15.4 µM | 111 | 89.5 | 121
RPMI 5 mM glucose + 10% dialyzed FBS, 46.1 µM | 97.4 | 91.4 | 73.9

AUC of viability dose-response curve
Settings | HPLM + 10% dialyzed FBS | RPMI 5 mM glucose + 10% FBS | RPMI 5 mM glucose + 10% dialyzed FBS
NOMO1 [3] | 462 | 448 | 446
P12-Ichikawa [4] | 464 | 436 | 450
